Where two headings read alike, the source gives them in different places.
How the values were obtained:
kinases (468) [1] = target: kinases (468) (Homo sapiens, UniProt P07949, V804L); conditions: kinase RET(V804L) (Entrez RET); compound concentration 1000 nM
kinases (468) [2] = target: kinases (468) (Homo sapiens, UniProt P28482); conditions: ERK2 (MAPK1); 1000 nM
kinases (468) [3] = target: kinases (468) (Homo sapiens, UniProt O94768); conditions: DRAK2 (STK17B); 1000 nM
kinases (468) [4] = target: kinases (468) (Homo sapiens, UniProt P19525); conditions: PRKR (EIF2AK2); 1000 nM
kinases (468) [5] = target: kinases (468) (Homo sapiens, UniProt Q56UN5); conditions: kinase YSK4 (Entrez MAP3K19); compound concentration 1000 nM
Chain of kinases (468) (Homo sapiens, UniProt Q56UN5) (Q56UN5 whole entry): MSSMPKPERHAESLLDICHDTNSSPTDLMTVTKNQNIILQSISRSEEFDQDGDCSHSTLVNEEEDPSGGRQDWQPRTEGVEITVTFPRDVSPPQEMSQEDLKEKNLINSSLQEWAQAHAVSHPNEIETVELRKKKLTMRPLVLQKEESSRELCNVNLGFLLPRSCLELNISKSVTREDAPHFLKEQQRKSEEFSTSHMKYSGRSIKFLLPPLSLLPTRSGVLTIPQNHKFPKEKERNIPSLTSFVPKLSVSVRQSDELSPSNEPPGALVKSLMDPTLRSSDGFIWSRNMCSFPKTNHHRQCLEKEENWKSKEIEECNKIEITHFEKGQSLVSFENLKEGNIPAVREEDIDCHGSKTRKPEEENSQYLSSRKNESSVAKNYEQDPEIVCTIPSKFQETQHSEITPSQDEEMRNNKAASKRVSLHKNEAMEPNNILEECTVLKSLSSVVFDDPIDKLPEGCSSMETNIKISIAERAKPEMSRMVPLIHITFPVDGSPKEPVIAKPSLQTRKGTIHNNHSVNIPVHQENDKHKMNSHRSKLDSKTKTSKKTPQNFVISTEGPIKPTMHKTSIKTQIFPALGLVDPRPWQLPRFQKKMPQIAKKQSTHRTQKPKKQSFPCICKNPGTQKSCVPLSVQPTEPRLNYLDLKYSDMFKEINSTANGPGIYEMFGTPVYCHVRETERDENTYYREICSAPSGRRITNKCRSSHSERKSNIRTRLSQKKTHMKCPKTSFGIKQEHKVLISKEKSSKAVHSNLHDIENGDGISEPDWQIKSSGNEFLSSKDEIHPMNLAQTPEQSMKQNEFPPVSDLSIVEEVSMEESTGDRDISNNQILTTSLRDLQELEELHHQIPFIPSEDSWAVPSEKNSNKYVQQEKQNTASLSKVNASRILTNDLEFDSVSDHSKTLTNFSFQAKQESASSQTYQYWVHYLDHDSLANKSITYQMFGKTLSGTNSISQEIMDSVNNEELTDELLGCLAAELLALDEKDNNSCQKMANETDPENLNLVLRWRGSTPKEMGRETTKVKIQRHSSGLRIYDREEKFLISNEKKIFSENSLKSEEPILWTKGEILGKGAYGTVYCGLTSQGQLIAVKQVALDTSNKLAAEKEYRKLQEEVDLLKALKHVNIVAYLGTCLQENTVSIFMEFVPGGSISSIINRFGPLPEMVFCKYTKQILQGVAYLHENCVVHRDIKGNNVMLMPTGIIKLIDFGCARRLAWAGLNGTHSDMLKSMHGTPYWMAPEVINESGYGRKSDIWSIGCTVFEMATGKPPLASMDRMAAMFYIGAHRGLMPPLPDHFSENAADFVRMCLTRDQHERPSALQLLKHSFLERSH

kinases (468) [6] = target: kinases (468) (Homo sapiens, UniProt Q9UKE5); conditions: kinase TNIK (Entrez TNIK); compound concentration 1000 nM
kinases (468) [7] = target: kinases (468) (Homo sapiens, UniProt Q99558); conditions: NIK (MAP3K14); 1000 nM
kinases (468) [8] = target: kinases (468) (Homo sapiens, UniProt P00533, L861Q); conditions: EGFR(L861Q); 1000 nM
kinases (468) [9] = target: kinases (468) (Homo sapiens, UniProt Q9UM73); conditions: ALK; 1000 nM
kinases (468) [10] = target: kinases (468) (Homo sapiens, UniProt P20794); conditions: MAK; 1000 nM
kinases (468) [11] = target: kinases (468) (Homo sapiens, UniProt O15197); conditions: EPHB6; 1000 nM
kinases (468) [12] = target: kinases (468) (Homo sapiens, UniProt Q04759); conditions: PRKCQ; 1000 nM
kinases (468) [13] = target: kinases (468) (Homo sapiens, UniProt P41743); conditions: PRKCI; 1000 nM
kinases (468) [14] = target: kinases (468) (Homo sapiens, UniProt Q16288); conditions: kinase TRKC (Entrez NTRK3); compound concentration 1000 nM
kinases (468) [15] = target: kinases (468) (Homo sapiens, UniProt P36888, R834Q); conditions: FLT3(R834Q); 1000 nM
kinases (468) [16] = target: kinases (468) (Homo sapiens, UniProt P49674); conditions: CSNK1E; 1000 nM
Chain of kinases (468) (Homo sapiens, UniProt P49674) (P49674 whole entry): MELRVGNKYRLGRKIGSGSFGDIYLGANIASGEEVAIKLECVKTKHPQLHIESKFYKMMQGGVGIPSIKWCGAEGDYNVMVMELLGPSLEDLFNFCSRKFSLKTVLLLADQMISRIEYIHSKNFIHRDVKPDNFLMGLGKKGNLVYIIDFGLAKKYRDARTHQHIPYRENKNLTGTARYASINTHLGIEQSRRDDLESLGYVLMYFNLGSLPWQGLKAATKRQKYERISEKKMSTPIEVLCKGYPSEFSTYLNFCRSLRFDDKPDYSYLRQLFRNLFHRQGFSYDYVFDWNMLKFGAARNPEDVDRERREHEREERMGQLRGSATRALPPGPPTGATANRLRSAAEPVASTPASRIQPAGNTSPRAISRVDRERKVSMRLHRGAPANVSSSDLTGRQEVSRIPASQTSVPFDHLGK

kinases (468) [17] = target: kinases (468) (Homo sapiens, UniProt P42680); conditions: kinase TEC (Entrez TEC); compound concentration 1000 nM
kinases (468) [18] = target: kinases (468) (Homo sapiens, UniProt Q7L7X3); conditions: kinase TAOK1 (Entrez TAOK1); compound concentration 1000 nM
kinases (468) [19] = target: kinases (468) (Homo sapiens, UniProt Q13043); conditions: MST1 (STK4); 1000 nM
Chain of kinases (468) (Homo sapiens, UniProt Q13043) (Q13043 whole entry): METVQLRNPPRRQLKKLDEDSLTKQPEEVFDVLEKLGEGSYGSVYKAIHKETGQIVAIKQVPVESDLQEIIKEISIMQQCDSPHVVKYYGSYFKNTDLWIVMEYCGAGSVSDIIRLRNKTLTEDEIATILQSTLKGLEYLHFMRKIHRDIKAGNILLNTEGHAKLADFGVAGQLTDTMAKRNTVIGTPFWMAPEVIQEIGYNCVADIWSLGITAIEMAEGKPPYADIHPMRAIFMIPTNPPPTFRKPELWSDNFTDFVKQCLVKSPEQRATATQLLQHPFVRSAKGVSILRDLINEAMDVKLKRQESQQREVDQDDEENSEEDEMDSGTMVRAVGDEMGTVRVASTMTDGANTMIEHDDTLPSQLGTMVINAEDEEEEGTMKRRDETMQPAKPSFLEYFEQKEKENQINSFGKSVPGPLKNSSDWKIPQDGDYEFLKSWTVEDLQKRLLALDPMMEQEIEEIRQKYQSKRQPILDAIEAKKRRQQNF

kinases (468) [20] = target: kinases (468) (Homo sapiens, UniProt O43293); conditions: DAPK3; 1000 nM
Chain of kinases (468) (Homo sapiens, UniProt O43293) (O43293 whole entry): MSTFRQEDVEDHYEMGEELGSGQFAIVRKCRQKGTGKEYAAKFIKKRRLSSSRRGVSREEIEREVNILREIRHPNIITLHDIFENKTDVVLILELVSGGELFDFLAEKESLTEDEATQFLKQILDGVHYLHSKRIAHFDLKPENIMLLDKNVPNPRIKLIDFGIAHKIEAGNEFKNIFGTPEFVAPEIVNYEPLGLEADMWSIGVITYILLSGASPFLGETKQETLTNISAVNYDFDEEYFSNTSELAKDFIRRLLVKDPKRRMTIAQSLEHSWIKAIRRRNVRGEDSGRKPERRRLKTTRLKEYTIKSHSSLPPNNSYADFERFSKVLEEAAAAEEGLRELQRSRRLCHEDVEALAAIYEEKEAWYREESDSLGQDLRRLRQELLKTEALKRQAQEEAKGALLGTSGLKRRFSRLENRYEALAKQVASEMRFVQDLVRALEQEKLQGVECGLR

kinases (468) [21] = target: kinases (468) (Homo sapiens, UniProt P42681); conditions: kinase TXK (Entrez TXK); compound concentration 1000 nM
kinases (468) [22] = target: kinases (468) (Homo sapiens, UniProt Q13557); conditions: CAMK2D; 1000 nM
kinases (468) [23] = target: kinases (468) (Homo sapiens, UniProt O75676); conditions: compound concentration 1000 nM
Chain of kinases (468) (Homo sapiens, UniProt O75676) (O75676 whole entry): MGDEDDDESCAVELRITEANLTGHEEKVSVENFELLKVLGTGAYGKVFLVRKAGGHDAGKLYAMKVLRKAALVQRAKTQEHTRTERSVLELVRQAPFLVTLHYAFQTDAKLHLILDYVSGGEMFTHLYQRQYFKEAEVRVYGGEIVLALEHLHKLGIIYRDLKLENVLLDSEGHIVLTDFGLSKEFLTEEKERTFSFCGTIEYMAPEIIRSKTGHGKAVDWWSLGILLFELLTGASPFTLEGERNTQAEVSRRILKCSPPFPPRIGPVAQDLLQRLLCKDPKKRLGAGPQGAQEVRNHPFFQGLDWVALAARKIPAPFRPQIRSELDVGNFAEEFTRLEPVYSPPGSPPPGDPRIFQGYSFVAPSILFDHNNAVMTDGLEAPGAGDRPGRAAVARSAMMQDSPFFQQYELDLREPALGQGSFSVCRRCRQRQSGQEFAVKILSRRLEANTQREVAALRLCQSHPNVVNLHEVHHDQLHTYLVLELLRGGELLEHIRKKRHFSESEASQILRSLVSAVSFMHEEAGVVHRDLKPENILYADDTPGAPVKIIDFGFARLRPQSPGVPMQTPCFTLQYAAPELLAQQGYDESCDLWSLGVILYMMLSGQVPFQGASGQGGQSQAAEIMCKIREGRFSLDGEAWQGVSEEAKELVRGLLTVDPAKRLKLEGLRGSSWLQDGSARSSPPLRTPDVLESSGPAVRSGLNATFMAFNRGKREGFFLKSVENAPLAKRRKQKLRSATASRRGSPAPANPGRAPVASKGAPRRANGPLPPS

kinases (468) [24] = target: kinases (468) (Homo sapiens, UniProt Q9UEW8); conditions: kinase STK39 (Entrez STK39); compound concentration 1000 nM
kinases (468) [25] = target: kinases (468) (Homo sapiens, UniProt Q16620); conditions: kinase TRKB (Entrez NTRK2); compound concentration 1000 nM
kinases (468) [26] = target: kinases (468) (Homo sapiens, UniProt P15056); conditions: BRAF; 1000 nM
kinases (468) [27] = target: kinases (468) (Homo sapiens, UniProt Q86Z02); conditions: HIPK1; 1000 nM
kinases (468) [28] = target: kinases (468) (Homo sapiens, UniProt Q9P286); conditions: PAK7; 1000 nM
kinases (468) [29] = target: kinases (468) (Homo sapiens, UniProt O15146); conditions: MUSK; 1000 nM
kinases (468) [30] = target: kinases (468) (Homo sapiens, UniProt P07949); conditions: RET; 1000 nM
kinases (468) [31] = target: kinases (468) (Homo sapiens, UniProt P00519, F317I); conditions: 1000 nM
Chain of kinases (468) (Homo sapiens, UniProt P00519, F317I) (P00519 whole entry F317I): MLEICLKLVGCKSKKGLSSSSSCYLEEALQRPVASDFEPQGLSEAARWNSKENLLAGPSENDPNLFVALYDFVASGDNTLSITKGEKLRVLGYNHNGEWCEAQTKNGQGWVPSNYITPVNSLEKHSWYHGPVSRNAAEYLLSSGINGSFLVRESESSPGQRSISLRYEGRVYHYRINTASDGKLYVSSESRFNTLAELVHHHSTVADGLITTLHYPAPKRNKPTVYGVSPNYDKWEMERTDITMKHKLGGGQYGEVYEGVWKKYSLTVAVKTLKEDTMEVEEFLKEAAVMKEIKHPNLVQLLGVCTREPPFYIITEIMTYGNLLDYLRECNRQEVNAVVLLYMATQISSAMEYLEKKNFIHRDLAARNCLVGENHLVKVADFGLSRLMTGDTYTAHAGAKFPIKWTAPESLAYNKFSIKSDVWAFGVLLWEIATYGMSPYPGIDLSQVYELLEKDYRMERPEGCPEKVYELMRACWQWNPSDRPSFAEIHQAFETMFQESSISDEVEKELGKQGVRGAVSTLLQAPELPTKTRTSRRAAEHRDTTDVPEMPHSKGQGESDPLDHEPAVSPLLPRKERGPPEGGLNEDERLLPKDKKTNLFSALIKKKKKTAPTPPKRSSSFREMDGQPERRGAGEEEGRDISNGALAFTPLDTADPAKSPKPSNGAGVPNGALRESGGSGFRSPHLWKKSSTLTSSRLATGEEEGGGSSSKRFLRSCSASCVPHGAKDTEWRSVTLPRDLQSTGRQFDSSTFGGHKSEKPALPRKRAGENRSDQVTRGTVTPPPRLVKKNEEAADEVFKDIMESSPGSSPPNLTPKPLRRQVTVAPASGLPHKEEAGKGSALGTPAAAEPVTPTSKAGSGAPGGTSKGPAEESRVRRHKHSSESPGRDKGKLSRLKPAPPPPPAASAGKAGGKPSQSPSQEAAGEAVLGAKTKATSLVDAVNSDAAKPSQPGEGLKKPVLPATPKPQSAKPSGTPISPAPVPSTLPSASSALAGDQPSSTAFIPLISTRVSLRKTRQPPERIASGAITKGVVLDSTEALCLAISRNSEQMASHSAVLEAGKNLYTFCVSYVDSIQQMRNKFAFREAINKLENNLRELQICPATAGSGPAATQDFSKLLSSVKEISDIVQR

kinases (468) [32] = target: kinases (468) (Homo sapiens, UniProt Q99683); conditions: ASK1 (MAP3K5); 1000 nM
kinases (468) [33] = target: kinases (468) (Homo sapiens, UniProt Q13163); conditions: MEK5 (MAP2K5); 1000 nM
Chain of kinases (468) (Homo sapiens, UniProt Q13163) (Q13163 whole entry): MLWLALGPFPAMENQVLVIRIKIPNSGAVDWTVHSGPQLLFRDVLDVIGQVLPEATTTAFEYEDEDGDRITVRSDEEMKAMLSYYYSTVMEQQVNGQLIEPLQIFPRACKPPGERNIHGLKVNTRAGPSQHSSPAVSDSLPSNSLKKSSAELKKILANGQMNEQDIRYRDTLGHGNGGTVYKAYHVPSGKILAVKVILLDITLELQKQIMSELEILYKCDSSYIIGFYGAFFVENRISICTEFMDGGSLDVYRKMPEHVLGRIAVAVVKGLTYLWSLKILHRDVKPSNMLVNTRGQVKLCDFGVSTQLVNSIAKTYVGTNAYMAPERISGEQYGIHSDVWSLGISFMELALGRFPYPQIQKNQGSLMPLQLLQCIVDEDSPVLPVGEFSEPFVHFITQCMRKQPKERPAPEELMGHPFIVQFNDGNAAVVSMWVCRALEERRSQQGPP

SMILES: C[C@H]1C[C@@H](O)CN(c2ncc(Cl)c(Nc3ccc4c(c3)c3c(c(=O)n4C)OCC(F)(F)[C@H](C4CC4)N3)n2)C1 [CCT373566_9A]
- Percent Control (kinases (468) [1]): 100%
- Percent Control (kinases (468) [2]): 96%
- Percent Control (kinases (468) [3]): 98%
- Percent Control (kinases (468) [4]): 95%
- Percent Control (kinases (468) [5]): 100%
- Percent Control (kinases (468) [6]): 94%
- Percent Control (kinases (468) [7]): 83%
- Percent Control (kinases (468) [8]): 100%
- Percent Control (kinases (468) [9]): 98%
- Percent Control (kinases (468) [10]): 93%
- Percent Control (kinases (468) [11]): 93%
- Percent Control (kinases (468) [12]): 100%
- Percent Control (kinases (468) [13]): 88%
- Percent Control (kinases (468) [14]): 100%
- Percent Control (kinases (468) [15]): 100%
- Percent Control (kinases (468) [16]): 90%
- Percent Control (kinases (468) [17]): 94%
- Percent Control (kinases (468) [18]): 99%
- Percent Control (kinases (468) [19]): 99%
- Percent Control (kinases (468) [20]): 100%
- Percent Control (kinases (468) [21]): 99%
- Percent Control (kinases (468) [22]): 88%
- Percent Control (kinases (468) [23]; kinase RPS6KA4(Kin.Dom.1-N-terminal) (Entrez RPS6KA4)): 96%
- Percent Control (kinases (468) [23]; kinase RPS6KA4(Kin.Dom.2-C-terminal) (Entrez RPS6KA4)): 100%
- Percent Control (kinases (468) [24]): 98%
- Percent Control (kinases (468) [25]): 97%
- Percent Control (kinases (468) [26]): 92%
- Percent Control (kinases (468) [27]): 98%
- Percent Control (kinases (468) [28]): 96%
- Percent Control (kinases (468) [29]): 100%
- Percent Control (kinases (468) [30]): 99%
- Percent Control (kinases (468) [31]; ABL1(F317I)-nonphosphorylated): 95%
- Percent Control (kinases (468) [31]; ABL1(F317I)-phosphorylated): 90%
- Percent Control (kinases (468) [32]): 100%
- Percent Control (kinases (468) [33]): 100%

Reference: publication PMC9234961 (Journal of Medicinal Chemistry, 2022)
